Data: PubChem BioAssay (NCI)
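Compound exposure: 48 hours, 5 concentrations, 96-well plates. TGI is the concentration that stops growth completely.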

Key:
Experiment in all cases: growth of human tumour cells (NCI), 48 h
[1] = system: NCI-H23 lung
[2] = system: MCF7 breast
[3] = system: HCC-2998 colon
[4] = system: SK-OV-3 ovarian
[5] = system: 786-0 renal
[6] = system: M14 melanoma
[7] = system: SW-620 colon
[8] = system: MDA-MB-435
[9] = system: SF-268 CNS
[10] = system: SNB-78 CNS
[11] = system: NCI-H460 lung
[12] = system: SF-539 CNS
[13] = system: U251 CNS
[14] = system: SNB-75 CNS
[15] = system: MALME-3M melanoma
[16] = system: UACC-257 melanoma
[17] = system: SK-MEL-5 melanoma
[18] = system: DU-145 prostate
[19] = system: TK-10 renal
[20] = system: RPMI-8226 leukemia
[21] = system: HT29 colon
[22] = system: K-562 leukemia
[23] = system: CAKI-1 renal
[24] = system: MDA-N
[25] = system: SK-MEL-28 melanoma
[26] = system: LOX IMVI melanoma
[27] = system: SK-MEL-2 melanoma
[28] = system: T-47D breast
[29] = system: DMS 273 small cell lung
[30] = system: HOP-92 NSCLC
[31] = system: IGROV1 ovarian
[32] = system: CCRF-CEM leukemia
[33] = system: XF 498 CNS
[34] = system: HCT-15 colon
[35] = system: A549 NSCLC
[36] = system: NCI-H226 lung
[37] = system: COLO 205 colon
[38] = system: EKVX NSCLC
[39] = system: HOP-18 NSCLC
[40] = system: KM20L2 colon
[41] = system: RXF 393 renal
[42] = system: OVCAR-4 ovarian
[43] = system: M19-MEL melanoma
[44] = system: DLD-1 colon
[45] = system: HOP-62 NSCLC
[46] = system: MOLT-4 leukemia
[47] = system: SNB-19 CNS
[48] = system: MDA-MB-231 breast
[49] = system: HS 578T breast
[50] = system: UACC-62 melanoma
[51] = system: ACHN renal
[52] = system: RXF-631 renal
[53] = system: PC-3 prostate
[54] = system: SN12C renal
[55] = system: SF-295 CNS
[56] = system: NCI/ADR-RES ovarian
[57] = system: A498 renal
[58] = system: OVCAR-8 ovarian
[59] = system: KM12 colon
[60] = system: UO-31 renal
[61] = system: HCT-116 colon
[62] = system: DMS 114 small cell lung
[63] = system: HL-60(TB) leukemia
[64] = system: NCI-H522 lung
[65] = system: OVCAR-5 ovarian
[66] = system: OVCAR-3 ovarian
[67] = system: LXFL 529 NSCLC

In the case of `C/C(N=NC(=S)N1CC2CCC(CC2)C1)=C1\C=CC=CN1O`, the TGI [1] is reported as > 100 µM, the TGI [2] is reported as > 100 µM and the TGI [3] is reported as > 100 µM. The TGI [4] was > 100 µM, the TGI [5] was > 100 µM and the TGI [6] was 20.3 µM. The TGI [7] was > 100 µM, the TGI [8] was > 100 µM and the TGI [9] was > 100 µM. The TGI [10] was > 100 µM, the TGI [11] was 42.7 µM and the TGI [12] was 31 µM. For the same compound, the TGI [13] was > 61.4 µM, the TGI [14] was 85.9 µM and the TGI [15] was > 82.4 µM. The TGI [16] was 35.2 µM, the TGI [17] was 41.1 µM and the TGI [18] was > 100 µM. The TGI [19] was > 100 µM, the TGI [20] was > 39.2 µM and the TGI [21] was > 57.9 µM. The TGI [22] was > 46.8 µM, the TGI [23] was > 100 µM and the TGI [24] was > 100 µM. For the same compound, the TGI [25] was > 100 µM, the TGI [26] was > 50.7 µM and the TGI [27] was > 100 µM. It also gave a TGI [28] of 94.8 µM, a TGI [29] of 24.2 µM and a TGI [30] of 54.5 µM. The TGI [31] was > 100 µM, the TGI [32] was 1.29 µM and the TGI [33] was 91.2 µM. The TGI [34] was > 100 µM, the TGI [35] was > 68.8 µM and the TGI [36] was 21.7 µM. For the same compound, the TGI [37] was 38.4 µM, the TGI [38] was > 65.9 µM and the TGI [39] was > 100 µM. For the same compound, the TGI [40] was > 100 µM, the TGI [41] was 69.3 µM and the TGI [42] was > 100 µM. For the same compound, the TGI [43] was 23.3 µM, the TGI [44] was > 100 µM and the TGI [45] was > 100 µM. The TGI [46] was 6.46 µM, the TGI [47] was > 82.5 µM and the TGI [48] was > 100 µM. For the same compound, the TGI [49] was > 100 µM, the TGI [50] was 29.3 µM and the TGI [51] was 30.7 µM. The TGI [52] was > 100 µM, the TGI [53] was 45.4 µM and the TGI [54] was > 100 µM. For the same compound, the TGI [55] was > 71.5 µM, the TGI [56] was 8.73 µM and the TGI [57] was > 94.9 µM. The TGI [58] was > 100 µM, the TGI [59] was > 31.6 µM and the TGI [60] was 43 µM. The TGI [61] was 30.5 µM, the TGI [62] was 5.4 µM and the TGI [63] was 3.54 µM. The TGI [64] was 80.3 µM and the TGI [65] was > 100 µM.

In the case of `Cc1nc(Nc2ccc(Cl)cc2)sc1C(=O)NNC(=S)NN`, the TGI [1] is reported as 33.4 µM, the TGI [3] is reported as 28.8 µM and the TGI [4] is reported as 54 µM. The TGI [5] was 30.2 µM, the TGI [6] was 35.1 µM and the TGI [7] was 38.1 µM. The TGI [9] was 48.5 µM, the TGI [66] was 39.5 µM and the TGI [10] was 57.2 µM. It also gave a TGI [11] of 38.3 µM, a TGI [12] of 31.8 µM and a TGI [13] of 32.3 µM. It also gave a TGI [14] of 64.3 µM, a TGI [15] of 35.5 µM and a TGI [16] of 27.3 µM. The TGI [17] was 32.9 µM, the TGI [19] was 45.1 µM and the TGI [20] was 79.5 µM. For the same compound, the TGI [22] was 99 µM, the TGI [23] was 44.8 µM and the TGI [25] was 35 µM. It also gave a TGI [26] of 29.5 µM, a TGI [27] of 33.4 µM and a TGI [29] of 36.2 µM. For the same compound, the TGI [30] was 43.2 µM, the TGI [31] was 63 µM and the TGI [67] was 36.4 µM. For the same compound, the TGI [32] was 88.5 µM, the TGI [33] was 38.4 µM and the TGI [34] was 45.5 µM. It also gave a TGI [35] of 39.6 µM, a TGI [36] of 38 µM and a TGI [37] of 43.6 µM. For the same compound, the TGI [38] was 46.8 µM, the TGI [39] was 33.5 µM and the TGI [40] was 32.5 µM. The TGI [41] was 27.6 µM, the TGI [42] was 32.7 µM and the TGI [43] was 40.7 µM. The TGI [44] was 30.7 µM, the TGI [45] was 33 µM and the TGI [46] was 58.6 µM. The TGI [47] was 34.8 µM, the TGI [50] was 33.7 µM and the TGI [51] was 45.7 µM. For the same compound, the TGI [52] was 36.1 µM, the TGI [54] was 34.3 µM and the TGI [55] was 34.1 µM. For the same compound, the TGI [57] was 29.1 µM, the TGI [58] was 43.7 µM and the TGI [59] was 42.3 µM. The TGI [60] was 30.2 µM, the TGI [61] was 30.8 µM and the TGI [62] was 39 µM. The TGI [63] was 50.2 µM, the TGI [64] was 34.8 µM and the TGI [65] was 31.4 µM.
